The source of these data is PMC9323733, “Efficacy of Vafidemstat in Experimental Autoimmune Encephalomyelitis Highlights the KDM1A/RCOR1/HDAC Epigenetic Axis in Multiple Sclerosis” (Pharmaceutics, 2022).

The structures appear in SMILES notation. Entries after “also recorded” stand apart in the source; their conditions may differ.

The subject of one data set is lymphocytes. Kind of data set: GLP toxicological studies, lymphocyte count, dogs. The data set is classed as in vivo, Beagle dogs. The conditions noted are these: mean ± SD. The source says: (§1) T r eat m e nt N Ly m p h o c y te s Equivalent m ou se d o se
(§2) ( mg /k g p. o. ga va g e) (109/ L ) ( mg /k g p.o ga va ge)
(§3) 6 m ont h s W i sta r r at s
(§4) 9 m ont h s Be ag le d og s
(§5) Eff ec t of t r ea t me nt wi t h O RY-2 00 1 a d mi ni st e r e d by or al ga va ge o n l y m ph oc yt e s ob se r ve d i n G LP
(§6) t ox i c ol ogi c a l st udi e s i n r at a nd do g. A ni ma l s we r e t re a t e d or al l y (fi ve c o ns e c ut i ve da ys/ we e k) by ga va ge
(§7) 28 da ys or 6 mo nt hs ( ra t s) a nd 28 da ys or 9 mo nt hs (dogs). Data re prese nt de me a n ± S D. T he e q ui va l e n t
(§8) dos e i n m o use i s i n di c at e d. 1-wa y A N OV A a n d D u n ne t t’ s M ul ti pl e C o m pa ri so n t e st wa s use d.

For the next data set, the system named is circulating lymphocytes. Kind of data set: Toxicity studies, overall statements (circulating lymphocytes, gastrointestinal toxicity). The conditions noted are these: for total number of circulating lymphocytes: at doses effective in EAE and TMEV models. It counts as in vivo, rat and dog.
Text: as §1, §2, §3, §4, §5, §6, §7, §8

As to `Nc1nnc(CN[C@@H]2C[C@H]2c2ccc(OCc3ccccc3)cc2)o1` [ORY-2001], the Lymphocytes is on record as 2.10 ± 0.60 109/L in the data set with lymphocytes (9 months Beagle dogs, 0.025 mg/kg p.o. gavage (equivalent mouse dose 0.15)); 2.90 ± 0.30 109/L in the data set with lymphocytes (9 months Beagle dogs, 0.075 mg/kg p.o. gavage (equivalent mouse dose 0.45)); 2.75 ± 1.04 109/L in the data set on lymphocytes (9 months Beagle dogs, 0.150 mg/kg p.o. gavage (equivalent mouse dose 0.90)); 3.31 ± 0.41 109/L in the data set with lymphocytes (28 d Beagle dogs, 0.025 mg/kg p.o. gavage (equivalent mouse dose 0.15)); 2.88 ± 1.02 109/L in the data set with lymphocytes (28 d Beagle dogs, 0.075 mg/kg p.o. gavage (equivalent mouse dose 0.45)); 4.33 ± 1.08 109/L in the data set with lymphocytes (28 d Beagle dogs, 0.225 mg/kg p.o. gavage (equivalent mouse dose 1.35)). The “total number of circulating lymphocytes” value is on record as “did not significantly impact the total number of circulating lymphocytes” with circulating lymphocytes and “do not significantly impact the total number of circulating lymphocytes; also recorded: do not significantly affect hematology or lymphocyte counts” in the data set with circulating lymphocytes (listed as vafidemstat). Moreover, in the data set on circulating lymphocytes (at effective doses, listed as vafidemstat), the gastrointestinal toxicity result is listed as “did not induce any signs of gastrointestinal toxicity; also recorded: without signs of gastro-intestinal toxicity”.
